The structures appear in SMILES notation. “And” between values parts separate entries of the source, which are not always exact repeats. Equal values may be shown once. Read-outs that look alike come from different tables or passages of the source.

A short description of data set [1]: Snapshot pharmacokinetic study in mice. Format: in vivo, Balb/c mice. The protocol:
Compound Se 2h was administered intravenously (5 mg/kg in 10% dimethyl sulfoxide, 30% propylene glycol, 30% PEG 400, and 30% of 10.0% Tween 80 in DI water) and by oral gavage (50 mg/kg in PEG 400 with 5% 1-methyl-2-pyrrolidone) in two female Balb/c mice (6 weeks old) for each group. Blood samples (∼25 μL) were collected with heparinized capillary tubes via the eye vein on mice anesthetized with isoflurane precompound administration and in the following times post administration: 30 min, 1 h, 2 h, 4 h. Samples were immediately centrifuged for plasma collection (supernatant). The animal experiment was approved by the UC San Diego IACUC committee under the protocol S14187 and follow all the ethical standards. The material was submitted for mass spectrometry quantification with provided known amounts spiked in naïve plasma for reference curve.

For a further data set, the target named is T1, recombinant Cz (cruzain) (Trypanosoma cruzi, UniProt P25779).
T1 construct: Cz was expressed and purified as described in da Silva et al; made in house
Briefly: biochemical. The settings on record: for SICz: ratio between IC50 hCatL and IC50 Cz. The essentials: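 Cruzain (1 nM) was preincubated 10 min with compound in 0.1 M sodium acetate pH 5.5, 1 mM DTT, 0.01% Triton X-100, then 2.5 μM Z-FR-AMC (final) was added. Fluorescence (360/460 nm) was read for 10 min at 25 °C and normalized to DMSO.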

The test system of the next data set is T. cruzi CAI/72 strain. Briefly: Antiparasitic activity in C2C12 cells infected with T. cruzi CAI/72 (image-based assay). Format: cell-based. The note with it: for EC50: read-out: EC50 Tc CAI/72, intracellular amastigotes in C2C12 cells, 48 h, mean of three experiments in triplicate (n = 9) ± SD.
Data set [2] deals with T2, Recombinant human cathepsin L (hCatL) (Homo sapiens, UniProt P07711).
T2 construct: purchased R&D Systems 952-CY
Briefly: Human cathepsin L inhibition assay (Z-FR-AMC substrate). Format: biochemical. The protocol: Compounds were screened at 10 μM. […] The experiment was performed for 30 min.
All experiments were accomplished in a 384-well black microplate, using a Synergy HTX (Biotek) plate reader at 25 °C with absorption/emission wavelengths of 360/460 nm. All assays were performed in triplicate wells and DMSO was used as a vehicle control. Enzymatic activity was measured and normalized to DMSO controls, and the inhibitor E-64 (10 μM) was used as a positive control for all assays. All experiments were performed in triplicates, with at least two independent assays (n = 6 data points). IC50 values were determined through nonlinear regression. Obtained data were treated and analyzed using GraphPad Prism 9.0 (GraphPad Software, La Jolla, California).

The nature of data set [3]: Host cell cytotoxicity (C2C12 viability). The data set is classed as cell-based, Mouse. The note with it: mouse. The essentials:
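Mouse C2C12 myoblasts co-seeded with CAI/72 trypomastigotes (10:1 parasite:cell) on compound, 48 h at 37 °C, 5% CO2. DAPI-stained fixed cells imaged; parasites per host cell normalized to 40 μM BNZ and DMSO. EC50 and C2C12 viability from dose-response curves, three biological replicates in triplicate.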

T2 sequence (P07711 114-333): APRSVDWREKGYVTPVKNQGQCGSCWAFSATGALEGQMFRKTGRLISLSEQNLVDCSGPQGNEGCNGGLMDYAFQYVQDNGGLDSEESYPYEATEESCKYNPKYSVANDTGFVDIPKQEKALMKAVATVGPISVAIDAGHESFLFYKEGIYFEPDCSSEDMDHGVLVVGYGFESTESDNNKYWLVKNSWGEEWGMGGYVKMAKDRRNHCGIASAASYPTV
T1 sequence (P25779 123-337 limits assumed): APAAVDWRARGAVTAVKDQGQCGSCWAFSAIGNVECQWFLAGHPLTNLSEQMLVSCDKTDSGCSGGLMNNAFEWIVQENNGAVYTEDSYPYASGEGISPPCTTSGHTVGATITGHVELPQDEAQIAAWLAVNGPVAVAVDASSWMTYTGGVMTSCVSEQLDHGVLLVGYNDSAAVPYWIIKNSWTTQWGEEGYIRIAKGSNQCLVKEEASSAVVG

For orientation: bioavailability means the share of a dose that reaches the circulation, judged against a reference dose that is usually intravenous. Higher therefore signals much systemic uptake. As usually defined, the Cmax is the peak of the concentration-time curve. The term IC50 denotes the concentration needed to halve the response being measured. The term viability denotes the share of living cells, or the viability signal relative to a control. A higher viability goes with better survival. For orientation: CC50 means the concentration that lowers cell viability or growth by half. In the case of `C/C(=N\Nc1nc(C)c[se]1)c1cccc([N+](=O)[O-])c1.Cl` [Se2h, (E)-4-Methyl-2-(2-(1-(3-nitrophenyl)ethylidene)hydrazineyl)-1,3-selenazole Hydrochloride], in data set [1] (5 mg/kg intravenous and 50 mg/kg oral), the “acute toxicity in the PK study” value is reported as “no signs of acute toxicity”. Further, the bioavailability in data set [1] (female, Balb/c, mouse, plasma, 50 mg/kg oral vs 5 mg/kg intravenous) was 82%. In data set [1] (female, Balb/c, mouse, plasma, oral dose 50 mg/kg), this compound had a peak concentration (Cmax) at 0.5 h of 2300 nM. Moreover, in data set [1] (female, Balb/c, mouse, plasma, other: intravenous and oral, 5 mg/kg intravenous and 50 mg/kg oral, read-out: half-life (T 1/2)), the half-life is below 1 h. Moreover, the “time of C max post administration” value in data set [1] (oral dose 50 mg/kg) is listed as 30 min. Moreover, the “Cz inhibition (%)” value on recombinant Cz (cruzain) (10 µM) is given as 100.09%. In addition, the IC50 at recombinant Cz (cruzain) (IC50 Cz, single biological replicate (Figure 3), each of two biological replicates in triplicate) is 3.4 nM and 14.5 nM; on recombinant Cz (cruzain) (mean of two experiments in triplicate (n = 6) ± SEM, read-out: IC50 Cz), 8.99 ± 5.56 nM; in data set [2] (each of two biological replicates in triplicate, read-out: IC50 hCatL, single biological replicate (Figure 4)), 1320 nM and 1360 nM; in data set [2] (mean of two experiments in triplicate (n = 6) ± SEM, read-out: IC50 hCatL), 1340 ± 18 nM. Further, the SICz on recombinant Cz (cruzain) came out at 148.83; at recombinant Cz (cruzain) (listed as Se 2h) it was 149. Besides, the inhibition at 10 µM on recombinant Cz (cruzain) (read-out: Cz inhibition (%), 10 µM) was above 85%; in the data set with T. cruzi CAI/72 strain (Trypanosoma cruzi, C2C12, read-out: Anti-Tc CAI/72 activity (%)), 57.7%; in data set [2] (10 µM), 92.2%. Moreover, the EC50 was 310 ± 180 nM in the data set with T. cruzi CAI/72 strain and below 1000 nM in the data set on T. cruzi CAI/72 strain (listed as Se 2h). In data set [3] (10 µM, < 50% viability considered cytotoxic), this compound yielded a viability at 48 h, 10 µM above 100%. The CC50 at 48 h in data set [3] (viability calculated at 10 μM) was above 10000 nM.

Values taken from paper PMC12320831, “Synthesis and Biological Evaluation of New Chalcogen Semicarbazone (S, Se) and Their Azole Derivatives against Chagas Disease” (Journal of Medicinal Chemistry, 2024).
